In patent US10653698B2, “Methods of improving myocardial performance in Fontan patients using udenafil compositions” (priority 2014, dated 2020):

Tests used:
[1] = test system: adolescents with single ventricle physiology after Fontan palliation; assay: Vascular function testing (EndoPAT pulse amplitude tonometry, lnRHI and other EndoPAT indices); assay type: in vivo, human; conditions: for Natural Log of Reactive Hyperemia Index, Baseline measurement: day 1; for Natural Log of Reactive Hyperemia Index, Follow-up measurement: post-medication, day 5
From the text: Pulse amplitude tonometry (PAT), a FDA-approved method for assessing vascular function, is increasingly being used as an alternative measure of endothelium-dependent dilation in response to reactive hyperemia and flow-mediated dilation (FMD). The PAT device records digital pulse wave amplitude (PWA) using fingertip plethysmography. PWA can be measured continuously during three phases: a quiet baseline period, 5-min forearm occlusion, and reactive hyperemia following cuff release. Unlike FMD, PAT testing is not dependent upon a highly skilled technician and post-test analysis is largely automated. Most importantly, at least one longitudinal study has shown that PAT measures of endothelial function predict CVD events over a 6-year follow-up period. These significant advantages may make PAT testing suitable for clinical practice if prognostic significance and reliability can be verified.
The primary outcome of vascular function was determined according to an endothelial pulse amplitude tonometry (PAT) index as determined by the EndoPAT® device (Itamar Medical, Caesarea, Israel).
Table 16 summarizes the results for the key outcome from the vascular function testing—natural log of Reactive Hyperemia Index (lnRHI) by treatment group. Out of the 30 subjects enrolled in the treatment arms of the trial, 27 subjects had paired measurements with an acceptable quality (with QC score equal to 3 (the best) or 2). The structure of the table is similar to the one for exercise variables.
Table 17 reports change scores only for secondary EndoPAT outcomes (RHI, Framingham RHI etc; top panel) and other EndoPAT indices.

[2] = test system: adolescents with single ventricle physiology after Fontan palliation; assay: Exercise testing (peak VO2 at maximum effort, VO2 at anaerobic threshold); assay type: in vivo, human; conditions: for Peak VO2 at Anaerobic Threshold, Baseline measurement / Peak VO2 at Maximum Effort, Baseline measurement: day 1; for Peak VO2 at Anaerobic Threshold, Follow-up measurement / Peak VO2 at Maximum Effort, Follow-up measurement: post-medication, day 5
From the text: Exercise testing can include assessment of VO2 values during maximal effort or at anaerobic threshold. VO2 max, or maximal oxygen consumption, refers to the maximum amount of oxygen that an individual can utilize during intense exercise. This measurement is generally considered a reliable indicator of cardiovascular fitness and aerobic endurance. Theoretically, the more oxygen a person can use during high level exercise, the more energy that person can produce. This test is the gold standard for cardiorespiratory fitness because muscles need oxygen for prolonged (aerobic) exercise; blood carries oxygen to the muscles and the heart must pump adequate amounts of blood to meet the demands of aerobic exercise. VO2 is often measured by putting a mask on a subject, and measuring the volume and gas concentrations of inhaled and expired air. This measurement is often used in both clinical settings and research and is considered the most accurate. Testing commonly involves either exercising on a treadmill or riding a bike at increasing intensity until exhaustion, and is designed to provide readings at a maximal effort of the subject and/or at the subject's anaerobic threshold. The purpose of this example was to evaluate the efficacy of the treatment protocol described in Example 1 using various exercise testing parameters. The primary outcome of this arm of the study was maximal VO2 as determined by exercise testing. Table 14 summarizes results for the key outcome from the exercise testing—peak VO2 (limited to the subjects who achieved maximum effort) by treatment group. Out of the 36 subjects enrolled in the trial, 33 reached max effort in the exercise testing at each of the time points, and 31 subjects at both time points. The first two lines present data for baseline and follow-up measurements, while the third line presents differences between the two measurements (change scores, the outcome for this aim). […] An additional outcome, VO2 at anaerobic threshold, was also measured. Similar analyses were performed for this outcome. Overall results are similar to those for maximal VO2.

CCCOc1ccc(S(=O)(=O)NCCC2CCCN2C)cc1-c1nc2c(CCC)nn(C)c2c(=O)[nH]1 (stereo not shown) [udenafil]
AUC2max_oc: Area under the curve to Max-Occlusion/Control, FU − BL ([1]; 125 mg daily, N 6): 1.80 ± 1.18
AUCall_o: Area under the curve all-Occlusion (ratio to baseline), FU − BL ([1]; 125 mg daily, N 6): −0.28 ± 3.98
AUCall_oc: Area under the curve all-Occlusion/Control, FU − BL ([1]; 125 mg daily, N 6): −1.84 ± 7.21
Avg2Max_o: average upto max-Occlusion (ratio to baseline), FU − BL ([1]; 125 mg daily, N 6): 0.07 ± 0.86
Avg2Max_oc: average up to max-Occlusion/Control, FU − BL ([1]; 125 mg daily, N 6): −0.32 ± 1.28
Avgall_o: average all-Occlusion (ratio to baseline), FU − BL ([1]; 125 mg daily, N 6): −0.03 ± 0.49
Avgall_oc: average all -Occlusion/Control, FU − BL ([1]; 125 mg daily, N 6): −0.20 ± 0.84
Framingham RHI, FU − BL ([1]; 125 mg daily, N 6): −0.13 ± 0.51
Reactive Hyperemia Index, FU − BL ([1]; 125 mg daily, N 6): −0.21 ± 0.78
Natural Log of Reactive Hyperemia Index, Baseline measurement ([1]; 125 mg daily): 0.63 ± 0.37
Natural Log of Reactive Hyperemia Index, Follow-up measurement ([1]; 125 mg daily): 0.52 ± 0.34
Natural Log of Reactive Hyperemia Index, Difference, FU − BL ([1]; All subjects (treatment arms)): −0.02 ± 0.30
Natural Log of Reactive Hyperemia Index, Baseline measurement ([1]; All subjects (treatment arms)): 0.52 ± 0.28
Natural Log of Reactive Hyperemia Index, Follow-up measurement ([1]; All subjects (treatment arms)): 0.49 ± 0.28
AUC2max_o: Area under the curve to Max-Occlusion (ratio to baseline), FU − BL ([1]; All subjects, N 27): −0.26 ± 2.75
AUC2max_oc: Area under the curve to Max-Occlusion/Control, FU − BL ([1]; All subjects, N 27): 0.51 ± 2.91
AUCall_o: Area under the curve all-Occlusion (ratio to baseline), FU − BL ([1]; All subjects, N 27): 0.18 ± 3.54
AUCall_oc: Area under the curve all-Occlusion/Control, FU − BL ([1]; All subjects, N 27): −0.60 ± 4.93
Avg2Max_o: average upto max-Occlusion (ratio to baseline), FU − BL ([1]; All subjects, N 27): 0.04 ± 0.51
Avg2Max_oc: average up to max-Occlusion/Control, FU − BL ([1]; All subjects, N 27): −0.16 ± 0.79
Avgall_o: average all-Occlusion (ratio to baseline), FU − BL ([1]; All subjects, N 27): 0.02 ± 0.40
Avgall_oc: average all -Occlusion/Control, FU − BL ([1]; All subjects, N 27): −0.06 ± 0.54
Framingham RHI, FU − BL ([1]; All subjects, N 27): −0.06 ± 0.39
Reactive Hyperemia Index, FU − BL ([1]; All subjects, N 27): −0.04 ± 0.56
Improvement in natural log of Reactive Hyperemia Index ([1]; some patients, baseline to day 5): ≤ 9.75%
Peak VO2 at Anaerobic Threshold, Difference, FU − BL ([2]; 37.5 mg daily): -0.5 ± 4.1 mL/min/kg
Peak VO2 at Maximum Effort, Difference, FU − BL ([2]; 37.5 mg daily): -0.8 ± 1.7 mL/min/kg
Peak VO2 at Anaerobic Threshold, Baseline measurement ([2]; 37.5 mg daily): 17.2 ± 5.0 mL/min/kg
Peak VO2 at Maximum Effort, Baseline measurement ([2]; 37.5 mg daily): 24.6 ± 6.9 mL/min/kg
Peak VO2 at Anaerobic Threshold, Follow-up measurement ([2]; 37.5 mg daily): 16.3 ± 2.0 mL/min/kg
Peak VO2 at Maximum Effort, Follow-up measurement ([2]; 37.5 mg daily): 24.7 ± 6.7 mL/min/kg
Peak VO2 at Anaerobic Threshold, Difference, FU − BL ([2]; 37.5 mg twice daily): 0.1 ± 1.0 mL/min/kg
Peak VO2 at Maximum Effort, Difference, FU − BL ([2]; 37.5 mg twice daily): -1.6 ± 5.1 mL/min/kg
Peak VO2 at Anaerobic Threshold, Baseline measurement ([2]; 37.5 mg twice daily): 18.0 ± 3.0 mL/min/kg
Peak VO2 at Maximum Effort, Baseline measurement ([2]; 37.5 mg twice daily): 30.4 ± 6.2 mL/min/kg
Peak VO2 at Anaerobic Threshold, Follow-up measurement ([2]; 37.5 mg twice daily): 18.1 ± 3.0 mL/min/kg
Peak VO2 at Maximum Effort, Follow-up measurement ([2]; 37.5 mg twice daily): 28.8 ± 8.1 mL/min/kg
Peak VO2 at Anaerobic Threshold, Difference, FU − BL ([2]; 87.5 mg daily): -1.1 ± 1.9 mL/min/kg
Peak VO2 at Maximum Effort, Difference, FU − BL ([2]; 87.5 mg daily): -1.4 ± 2.5 mL/min/kg
Peak VO2 at Anaerobic Threshold, Baseline measurement ([2]; 87.5 mg daily): 17.6 ± 5.3 mL/min/kg
Peak VO2 at Maximum Effort, Baseline measurement ([2]; 87.5 mg daily): 28.4 ± 6.2 mL/min/kg
Peak VO2 at Anaerobic Threshold, Follow-up measurement ([2]; 87.5 mg daily): 16.5 ± 4.8 mL/min/kg
Peak VO2 at Maximum Effort, Follow-up measurement ([2]; 87.5 mg daily): 27.1 ± 5.0 mL/min/kg
Peak VO2 at Anaerobic Threshold, Difference, FU − BL ([2]; 87.5 mg twice daily): -1.7 ± 2.1 mL/min/kg
Peak VO2 at Maximum Effort, Difference, FU − BL ([2]; 87.5 mg twice daily): 0.2 ± 5.0 mL/min/kg
Peak VO2 at Anaerobic Threshold, Baseline measurement ([2]; 87.5 mg twice daily): 18.3 ± 4.6 mL/min/kg
Peak VO2 at Maximum Effort, Baseline measurement ([2]; 87.5 mg twice daily): 28.0 ± 5.2 mL/min/kg
Peak VO2 at Anaerobic Threshold, Follow-up measurement ([2]; 87.5 mg twice daily): 16.5 ± 5.2 mL/min/kg
Peak VO2 at Maximum Effort, Follow-up measurement ([2]; 87.5 mg twice daily): 28.2 ± 6.0 mL/min/kg
Peak VO2 at Anaerobic Threshold, Difference, FU − BL ([2]; 125 mg daily): 1.2 ± 1.9 mL/min/kg
Peak VO2 at Maximum Effort, Difference, FU − BL ([2]; 125 mg daily): 0.9 ± 2.6 mL/min/kg
Peak VO2 at Anaerobic Threshold, Baseline measurement ([2]; 125 mg daily): 18.8 ± 1.8 mL/min/kg
Peak VO2 at Maximum Effort, Baseline measurement ([2]; 125 mg daily): 28.6 ± 3.0 mL/min/kg
Peak VO2 at Anaerobic Threshold, Follow-up measurement ([2]; 125 mg daily): 20.0 ± 3.2 mL/min/kg
Peak VO2 at Maximum Effort, Follow-up measurement ([2]; 125 mg daily): 28.6 ± 3.8 mL/min/kg
